One assay relates to EBC-1. Nature of the assay: cells. The settings on record: Homo sapiens, EBC-1, 72 h.
The next assay concerns A549. As to the kind of experiment: cells. The conditions noted are these: Homo sapiens, A549, 72 h.
The subject of a further assay is HT-29. Nature of the assay: cells. The conditions noted are these: Homo sapiens, HT-29, 72 h.
The test system of assay [1] is K562. Nature of the assay: cells. The conditions noted are these: Homo sapiens, K562, 72 h.
Description: Antiproliferative activity against human K562 cells incubated for 3 days by MTT assay
For assay [2], the system named is K562. Nature of the assay: Induction of cell cycle arrest in human K562 cells assessed as accumulation at sub G1 phase at 10 uM incubated for 48 hrs by Rnase/PI staining based flow cytometry (reference value: 0.92 +/- 0.12). Format: functional. Background: A flow cytometer gives signals particle by particle.
Assay [3] deals with K562. Nature of the assay: Induction of cell cycle arrest in human K562 cells assessed as accumulation at G0/G1 phase at 10 uM incubated for 48 hrs by Rnase/PI staining based flow cytometry (reference value: 57.34 +/- 3.14). Format: functional.
Assay [4] concerns K562. Nature of the assay: Induction of cell cycle arrest in human K562 cells assessed as accumulation at S phase at 10 uM incubated for 48 hrs by Rnase/PI staining based flow cytometry (reference value: 17.95 +/- 3.42). It counts as functional.
The subject of assay [5] is K562. Nature of the assay: Induction of cell cycle arrest in human K562 cells assessed as accumulation at G2/M phase at 10 uM incubated for 48 hrs by Rnase/PI staining based flow cytometry (reference value: 23.78 +/- 6.09). Format: functional.
Assay [6] concerns K562. As to the kind of experiment: Induction of cell cycle arrest in human K562 cells assessed as accumulation at sub G1 phase at 50 uM incubated for 48 hrs by Rnase/PI staining based flow cytometry (reference value: 0.92 +/- 0.12). It counts as functional.
In assay [7] the test system is K562. As to the kind of experiment: Induction of cell cycle arrest in human K562 cells assessed as accumulation at G0/G1 phase at 50 uM incubated for 48 hrs by Rnase/PI staining based flow cytometry (reference value: 57.34 +/- 3.14). Format: functional.
The subject of assay [8] is K562. Nature of the assay: Induction of cell cycle arrest in human K562 cells assessed as accumulation at S phase at 50 uM incubated for 48 hrs by Rnase/PI staining based flow cytometry (reference value: 17.95 +/- 3.42). Format: functional.
The subject of assay [9] is K562. As to the kind of experiment: Induction of cell cycle arrest in human K562 cells assessed as accumulation at G2/M phase at 50 uM incubated for 48 hrs by Rnase/PI staining based flow cytometry (reference value: 23.78 +/- 6.09). Format: functional.
Assay [10] deals with Mast/stem cell growth factor receptor Kit (Homo sapiens) (UniProt P10721). Nature of the assay: Inhibition of KIT (unknown origin) at 10 uM by radiometric assay relative to control.
Chain of Mast/stem cell growth factor receptor Kit (Homo sapiens) (P10721 whole entry): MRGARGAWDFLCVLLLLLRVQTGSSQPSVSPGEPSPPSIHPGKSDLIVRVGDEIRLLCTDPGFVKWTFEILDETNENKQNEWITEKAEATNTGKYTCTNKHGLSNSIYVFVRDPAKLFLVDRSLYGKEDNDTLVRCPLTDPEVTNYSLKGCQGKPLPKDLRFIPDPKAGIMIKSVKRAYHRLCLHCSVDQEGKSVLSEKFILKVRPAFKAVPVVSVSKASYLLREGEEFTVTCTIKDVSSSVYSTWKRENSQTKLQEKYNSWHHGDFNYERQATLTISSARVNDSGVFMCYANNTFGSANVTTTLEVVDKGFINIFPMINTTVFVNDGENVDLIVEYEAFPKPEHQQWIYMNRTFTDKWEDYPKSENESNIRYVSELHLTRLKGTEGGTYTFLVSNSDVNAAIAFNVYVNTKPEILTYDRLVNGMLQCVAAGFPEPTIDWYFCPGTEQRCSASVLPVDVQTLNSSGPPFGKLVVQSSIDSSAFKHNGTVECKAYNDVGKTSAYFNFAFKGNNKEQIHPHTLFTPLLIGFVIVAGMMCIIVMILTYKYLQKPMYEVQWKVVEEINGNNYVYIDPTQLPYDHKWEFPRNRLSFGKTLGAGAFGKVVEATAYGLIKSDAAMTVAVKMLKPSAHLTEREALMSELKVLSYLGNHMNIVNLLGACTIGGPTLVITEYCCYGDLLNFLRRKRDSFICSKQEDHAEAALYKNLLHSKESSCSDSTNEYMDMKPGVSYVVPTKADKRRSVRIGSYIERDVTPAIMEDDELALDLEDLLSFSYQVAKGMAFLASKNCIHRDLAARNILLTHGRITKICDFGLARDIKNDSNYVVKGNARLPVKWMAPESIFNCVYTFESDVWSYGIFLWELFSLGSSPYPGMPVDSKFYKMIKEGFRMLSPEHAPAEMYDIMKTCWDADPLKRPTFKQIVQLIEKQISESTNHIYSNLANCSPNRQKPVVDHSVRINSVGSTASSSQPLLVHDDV
For assay [11], the target named is Vascular endothelial growth factor receptor 2 (Homo sapiens) (UniProt P35968). Nature of the assay: Inhibition of KDR (unknown origin) at 10 uM by radiometric assay relative to control.
Chain of Vascular endothelial growth factor receptor 2 (Homo sapiens) (P35968 whole entry): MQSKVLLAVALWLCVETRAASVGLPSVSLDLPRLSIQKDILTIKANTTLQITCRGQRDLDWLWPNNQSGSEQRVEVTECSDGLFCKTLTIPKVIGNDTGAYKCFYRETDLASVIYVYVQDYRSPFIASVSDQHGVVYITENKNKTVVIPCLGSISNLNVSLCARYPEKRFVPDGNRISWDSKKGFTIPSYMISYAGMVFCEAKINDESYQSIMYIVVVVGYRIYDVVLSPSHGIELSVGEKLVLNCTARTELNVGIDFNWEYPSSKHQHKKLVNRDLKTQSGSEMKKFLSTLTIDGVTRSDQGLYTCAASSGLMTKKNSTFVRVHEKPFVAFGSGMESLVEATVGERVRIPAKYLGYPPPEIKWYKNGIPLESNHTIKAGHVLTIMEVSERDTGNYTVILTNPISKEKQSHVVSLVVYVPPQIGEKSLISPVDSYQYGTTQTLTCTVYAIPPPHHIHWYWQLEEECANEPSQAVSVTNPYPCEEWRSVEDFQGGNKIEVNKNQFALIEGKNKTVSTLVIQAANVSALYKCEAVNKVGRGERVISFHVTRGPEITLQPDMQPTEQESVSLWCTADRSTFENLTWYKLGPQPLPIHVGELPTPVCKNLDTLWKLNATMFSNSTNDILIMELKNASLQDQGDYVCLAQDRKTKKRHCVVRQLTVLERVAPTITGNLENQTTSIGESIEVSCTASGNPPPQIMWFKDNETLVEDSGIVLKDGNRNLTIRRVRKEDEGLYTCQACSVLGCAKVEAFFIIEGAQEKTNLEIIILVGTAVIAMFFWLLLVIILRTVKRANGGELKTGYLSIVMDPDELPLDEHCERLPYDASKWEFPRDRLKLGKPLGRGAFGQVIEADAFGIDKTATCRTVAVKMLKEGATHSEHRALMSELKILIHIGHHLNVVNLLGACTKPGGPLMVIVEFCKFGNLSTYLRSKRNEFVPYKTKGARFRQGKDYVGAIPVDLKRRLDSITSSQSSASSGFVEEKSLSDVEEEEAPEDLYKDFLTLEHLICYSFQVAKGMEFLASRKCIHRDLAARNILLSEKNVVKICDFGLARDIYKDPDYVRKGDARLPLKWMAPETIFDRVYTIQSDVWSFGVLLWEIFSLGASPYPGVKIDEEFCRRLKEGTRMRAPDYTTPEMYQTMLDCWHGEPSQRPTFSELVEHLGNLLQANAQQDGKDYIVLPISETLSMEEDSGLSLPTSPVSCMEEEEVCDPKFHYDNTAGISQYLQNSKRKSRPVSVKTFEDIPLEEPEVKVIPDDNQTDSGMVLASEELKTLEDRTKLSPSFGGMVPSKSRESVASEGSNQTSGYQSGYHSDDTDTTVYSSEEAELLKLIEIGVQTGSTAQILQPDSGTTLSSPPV
Assay [12] addresses Mitogen-activated protein kinase 3 (Homo sapiens) (UniProt P27361). Nature of the assay: Inhibition of MAPK3 (unknown origin) at 10 uM by radiometric assay relative to control.
The target in assay [13] is Dual specificity mitogen-activated protein kinase kinase 1 (Homo sapiens) (UniProt Q02750). Nature of the assay: Inhibition of MAP2K1 (unknown origin) at 10 uM by radiometric assay relative to control.
Assay [14] addresses Hepatocyte growth factor receptor (Homo sapiens) (UniProt P08581). As to the kind of experiment: Inhibition of MET (unknown origin) at 10 uM by radiometric assay relative to control.
For assay [15], the target named is Macrophage-stimulating protein receptor (Homo sapiens) (UniProt Q04912). As to the kind of experiment: Inhibition of MST1R (unknown origin) at 10 uM by radiometric assay relative to control.
Chain of Macrophage-stimulating protein receptor (Homo sapiens) (Q04912 25-304 limits assumed): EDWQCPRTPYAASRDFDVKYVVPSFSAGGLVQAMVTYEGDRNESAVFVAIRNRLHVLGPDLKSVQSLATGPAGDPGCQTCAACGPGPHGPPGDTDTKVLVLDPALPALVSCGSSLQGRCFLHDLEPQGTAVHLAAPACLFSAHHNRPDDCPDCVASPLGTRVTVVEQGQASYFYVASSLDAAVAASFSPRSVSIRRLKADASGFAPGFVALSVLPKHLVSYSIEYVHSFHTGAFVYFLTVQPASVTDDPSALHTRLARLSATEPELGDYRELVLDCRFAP
Chain of Macrophage-stimulating protein receptor (Homo sapiens) (Q04912 310-1400 limits assumed): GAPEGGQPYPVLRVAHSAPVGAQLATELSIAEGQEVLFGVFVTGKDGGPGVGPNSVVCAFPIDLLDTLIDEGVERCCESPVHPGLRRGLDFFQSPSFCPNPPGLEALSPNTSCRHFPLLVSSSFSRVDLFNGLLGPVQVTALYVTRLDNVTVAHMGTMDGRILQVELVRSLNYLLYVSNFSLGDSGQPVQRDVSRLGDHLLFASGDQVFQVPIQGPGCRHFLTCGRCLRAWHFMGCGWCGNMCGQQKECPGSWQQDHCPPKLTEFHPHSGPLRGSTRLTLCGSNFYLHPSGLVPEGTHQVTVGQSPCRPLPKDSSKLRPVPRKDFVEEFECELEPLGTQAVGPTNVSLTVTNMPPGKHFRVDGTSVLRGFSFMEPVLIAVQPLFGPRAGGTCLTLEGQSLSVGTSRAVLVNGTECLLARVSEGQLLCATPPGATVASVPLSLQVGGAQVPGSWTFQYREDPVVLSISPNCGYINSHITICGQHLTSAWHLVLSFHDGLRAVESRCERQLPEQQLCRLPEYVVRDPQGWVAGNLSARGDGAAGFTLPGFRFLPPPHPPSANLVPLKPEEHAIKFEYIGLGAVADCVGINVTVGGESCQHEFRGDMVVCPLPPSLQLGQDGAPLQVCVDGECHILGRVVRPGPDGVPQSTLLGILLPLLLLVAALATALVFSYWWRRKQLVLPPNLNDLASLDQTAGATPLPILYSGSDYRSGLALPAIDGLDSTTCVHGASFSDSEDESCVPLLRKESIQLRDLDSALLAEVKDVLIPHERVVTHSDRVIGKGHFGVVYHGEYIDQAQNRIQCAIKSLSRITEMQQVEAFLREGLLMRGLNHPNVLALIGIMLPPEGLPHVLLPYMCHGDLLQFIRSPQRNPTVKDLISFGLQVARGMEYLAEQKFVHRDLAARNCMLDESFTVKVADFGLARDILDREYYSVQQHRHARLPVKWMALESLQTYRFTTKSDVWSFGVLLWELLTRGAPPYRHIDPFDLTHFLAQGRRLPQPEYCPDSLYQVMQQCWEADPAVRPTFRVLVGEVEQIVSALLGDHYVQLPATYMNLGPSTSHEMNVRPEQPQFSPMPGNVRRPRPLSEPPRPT
Assay [16] deals with Platelet-derived growth factor receptor alpha (Homo sapiens) (UniProt P16234). Nature of the assay: Inhibition of PDGFRA (unknown origin) at 10 uM by radiometric assay relative to control.
Chain of Platelet-derived growth factor receptor alpha (Homo sapiens) (P16234 whole entry): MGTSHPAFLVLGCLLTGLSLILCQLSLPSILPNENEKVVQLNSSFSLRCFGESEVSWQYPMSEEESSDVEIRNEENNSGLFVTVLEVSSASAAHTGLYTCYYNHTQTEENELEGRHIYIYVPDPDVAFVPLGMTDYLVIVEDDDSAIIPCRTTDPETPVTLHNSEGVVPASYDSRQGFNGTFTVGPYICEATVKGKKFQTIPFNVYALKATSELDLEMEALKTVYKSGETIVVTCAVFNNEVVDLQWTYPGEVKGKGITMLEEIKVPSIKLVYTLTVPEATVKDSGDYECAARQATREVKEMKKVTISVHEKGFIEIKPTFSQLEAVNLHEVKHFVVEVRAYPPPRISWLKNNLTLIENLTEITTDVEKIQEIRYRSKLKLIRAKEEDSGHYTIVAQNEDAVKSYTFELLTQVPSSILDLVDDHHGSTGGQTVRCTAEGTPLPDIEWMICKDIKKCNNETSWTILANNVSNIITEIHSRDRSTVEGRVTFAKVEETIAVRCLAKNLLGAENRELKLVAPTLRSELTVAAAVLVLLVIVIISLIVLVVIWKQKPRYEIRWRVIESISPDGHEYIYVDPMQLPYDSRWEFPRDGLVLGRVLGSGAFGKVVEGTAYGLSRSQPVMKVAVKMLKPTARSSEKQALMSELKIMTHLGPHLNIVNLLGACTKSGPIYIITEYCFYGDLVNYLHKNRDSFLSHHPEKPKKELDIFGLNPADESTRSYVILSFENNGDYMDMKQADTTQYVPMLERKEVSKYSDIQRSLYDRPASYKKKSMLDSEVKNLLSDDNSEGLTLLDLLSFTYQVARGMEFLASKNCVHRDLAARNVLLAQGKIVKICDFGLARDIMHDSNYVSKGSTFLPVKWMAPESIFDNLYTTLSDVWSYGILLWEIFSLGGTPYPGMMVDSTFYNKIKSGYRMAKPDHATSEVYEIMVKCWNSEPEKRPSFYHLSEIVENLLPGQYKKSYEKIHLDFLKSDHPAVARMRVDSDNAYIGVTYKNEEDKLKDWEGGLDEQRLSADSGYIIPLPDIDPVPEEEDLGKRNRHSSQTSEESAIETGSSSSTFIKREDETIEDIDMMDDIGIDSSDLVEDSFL
For assay [17], the target named is Platelet-derived growth factor receptor beta (Homo sapiens) (UniProt P09619). As to the kind of experiment: Inhibition of PDGFRB (unknown origin) at 10 uM by radiometric assay relative to control.
Assay [18] addresses Receptor-type tyrosine-protein kinase FLT3 (Homo sapiens) (UniProt P36888). Nature of the assay: Inhibition of human FLT3 at 10 uM by radiometric assay relative to control.
Assay [19] concerns T1, Receptor-type tyrosine-protein kinase FLT3 (Homo sapiens), P36888 [D835Y].
T1 sequence (whole entry): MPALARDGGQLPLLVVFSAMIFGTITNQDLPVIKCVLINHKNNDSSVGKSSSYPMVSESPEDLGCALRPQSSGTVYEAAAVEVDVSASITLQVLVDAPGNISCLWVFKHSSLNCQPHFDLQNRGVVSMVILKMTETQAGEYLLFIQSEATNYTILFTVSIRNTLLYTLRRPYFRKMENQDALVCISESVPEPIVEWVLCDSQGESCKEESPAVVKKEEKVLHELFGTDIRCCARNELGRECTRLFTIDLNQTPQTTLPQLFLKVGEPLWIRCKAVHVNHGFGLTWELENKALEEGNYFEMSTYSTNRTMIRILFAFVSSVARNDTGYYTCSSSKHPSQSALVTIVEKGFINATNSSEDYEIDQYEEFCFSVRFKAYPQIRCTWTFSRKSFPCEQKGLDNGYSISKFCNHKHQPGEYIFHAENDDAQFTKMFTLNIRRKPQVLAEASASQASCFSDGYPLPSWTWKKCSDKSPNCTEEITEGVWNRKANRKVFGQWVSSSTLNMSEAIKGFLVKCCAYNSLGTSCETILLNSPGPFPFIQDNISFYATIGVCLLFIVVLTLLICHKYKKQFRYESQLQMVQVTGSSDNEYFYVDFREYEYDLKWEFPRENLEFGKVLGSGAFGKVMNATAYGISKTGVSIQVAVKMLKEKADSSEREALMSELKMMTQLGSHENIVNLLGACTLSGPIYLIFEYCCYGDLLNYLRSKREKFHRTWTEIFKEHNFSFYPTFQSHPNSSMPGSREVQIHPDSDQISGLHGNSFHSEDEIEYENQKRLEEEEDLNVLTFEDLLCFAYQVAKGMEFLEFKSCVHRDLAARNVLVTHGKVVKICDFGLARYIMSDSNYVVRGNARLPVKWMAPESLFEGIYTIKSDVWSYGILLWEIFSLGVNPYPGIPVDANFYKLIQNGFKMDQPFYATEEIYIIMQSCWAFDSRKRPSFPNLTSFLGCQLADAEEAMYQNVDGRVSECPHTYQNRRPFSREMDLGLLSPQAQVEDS
As to the kind of experiment: Inhibition of human FLT3 D835Y mutant at 10 uM by radiometric assay relative to control.

Assay [20] concerns the target Receptor-type tyrosine-protein kinase FLT3 (Homo sapiens) (UniProt P36888). As to the kind of experiment: Inhibition of human FLT3 at 25 uM by radiometric assay relative to control.
Assay [21] concerns T1, Receptor-type tyrosine-protein kinase FLT3 (Homo sapiens), P36888 [D835Y]. Nature of the assay: Inhibition of human FLT3 D835Y mutant at 25 uM by radiometric assay relative to control.

Some results are limits rather than exact numbers.

The values below come from ChEMBL document CHEMBL5325463, “Novel spiroindoline quinazolinedione derivatives as anticancer agents and potential FLT3 kinase inhibitors” (Bioorg Med Chem, 2023).

Description for A549: Antiproliferative activity against human A549 cells incubated for 3 days by MTT assay
Description for EBC-1: Antiproliferative activity against human EBC-1 cells incubated for 3 days by MTT assay
Description for HT-29: Antiproliferative activity against human HT-29 cells incubated for 3 days by MTT assay

Broadly, the IC50 is the concentration at which inhibition is half-maximal. A higher IC50 goes with lower potency. Take `O=C1NC2(Nc3c(Br)cc(Br)cc31)C(=O)N(Cc1ccc(Cl)c(Cl)c1)c1ccccc12` (centres undefined): the IC50 in the assay with EBC-1 was 19.8 µM; in the assay on A549, over 100 µM; in the assay with HT-29, 24.3 µM; with K562 [1], over 100 µM.

As for `COc1cc2nccc(Oc3ccc(NC(=O)C4(C(=O)Nc5ccc(F)cc5)CC4)cc3)c2cc1OC` [CABOZANTINIB], the IC50 in the assay on EBC-1 was 0.0592 µM; in the assay on A549 it was 16.2 µM; in the assay on HT-29, 3.7 µM; with K562 [1], 1.9 µM.

For the molecule `CC(C)(C)c1ccc(CN2C(=O)C3(NC(=O)c4cc(Br)cc(Br)c4N3)c3ccccc32)cc1` (centres undefined), the IC50 with EBC-1 is 19.6 µM; in the assay with A549 it was 45.5 µM; in the assay with HT-29 it was over 100 µM; in the assay on K562 [1] it was over 100 µM.

For `CCCCCN1C(=O)C2(NC(=O)c3cc(Br)cc(Br)c3N2)c2ccccc21` (centres undefined), the IC50 was 24.7 µM in the assay with EBC-1, 47.1 µM with A549, 51.9 µM with HT-29 and over 100 µM with K562 [1].

Usually inhibition stands for the drop in the measured response relative to a control, in per cent. Consider `O=C1NC2(Nc3c(Br)cc(Br)cc31)C(=O)N(Cc1ccc(Cl)cc1)c1ccccc12` (centres undefined), for which the Activity in the assay on K562 [2] was determined as 1.04%; in the assay with K562 [3] it was 57.29%; in the assay with K562 [4], 17.89%; in the assay on K562 [5], 23.78%; in the assay with K562 [6] it was 1.41%; in the assay on K562 [7], 50.3%. Besides, the figures for the Activity with K562 [8] and with K562 [9] were 21.06% and 27.23%, respectively. The inhibition in assay [10] is 1%; in [11], 12%; in assay [12], -4%; in assay [13], -6%; in [14] it was 12%; in assay [15], 2%. For the same molecule, the inhibition in assay [16] was 5%; in [17], -1%; in assay [18], 18%; in assay [19], 5%; in assay [20], 19%; in assay [21], -6%. The IC50 in the assay with EBC-1 was 10.4 µM; in the assay on A549, 26.9 µM; in the assay with HT-29, 12.5 µM; in the assay on K562 [1], 13.8 µM.

As to `Cc1ccc(CN2C(=O)C3(NC(=O)c4ccccc4N3)c3ccccc32)cc1` (centres undefined), the IC50 was 20.3 µM in the assay on EBC-1, 26.2 µM with A549 and 29.2 µM in the assay with HT-29.

`O=C1NC2(Nc3ccccc31)C(=O)N(Cc1ccc(Br)cc1)c1ccccc12` (centres undefined): the IC50 turned out to be 38.7 µM in the assay with EBC-1, 39.7 µM with A549, 71.9 µM in the assay on HT-29 and 19.9 µM in the assay on K562 [1].

As for `CCN1C(=O)C2(NC(=O)c3ccccc3N2)c2ccccc21` (centres undefined), the IC50 in the assay on EBC-1 is over 100 µM; in the assay on A549, over 100 µM; with HT-29, 28.5 µM; in the assay with K562 [1], 50.4 µM.

As for `CCCCCN1C(=O)C2(NC(=O)c3ccccc3N2)c2ccccc21` (centres undefined), the IC50 in the assay on EBC-1, with A549, in the assay with HT-29 and in the assay with K562 [1] was over 100 µM throughout.

In the case of `O=C1NC2(Nc3c(Br)cc(Br)cc31)C(=O)N(Cc1ccc(F)cc1)c1ccccc12` (centres undefined), the IC50 in the assay on EBC-1 was 34.6 µM; with A549, 45.4 µM; with HT-29 it was over 100 µM; with K562 [1], over 100 µM.
